# Data taken from paper PMC12377202, “Design, synthesis, and cytotoxic evaluation of quinazoline-based derivatives as VEGER-2 inhibitors: comparative study against EGFR kinase activity, induction of apoptosis, and molecular docking study” (RSC Advances, 2025).
# How the values were obtained:
# caspase-3 = experiment: Caspase-3 expression level in HepG-2 cells; type: cell-based, human; conditions: for Caspase-3 ± SE: HepG-2, at IC50 concentrations, control 0.460
# Description: (§1) All synthesized compounds were tested at their cytotoxic concentrations in HepG-2 cells for analysis of gene expression levels of apoptotic markers caspase-3, caspase-9, TNF-α, and IL-6 proteins, and only two active compounds were tested for BAX and Bcl-2 proteins.
# (§2) through Flow cytometric analysis.
# (§3) Pellets were collected again and incubated with
# (§4) Total RNA from vehicle-treated
# (§5) (Thermo Scientific, USA).
# (§6) All experiments were performed in […]
# caspase-9 = experiment: Caspase-9 expression level in HepG-2 cells; type: cell-based, human; conditions: for Caspase-9 ± SE: HepG-2, at IC50 concentrations, control 11.01
# Description: as §1, §2, §3, §4, §5, §6
# EGFR = EGFR (Homo sapiens, UniProt P00533); experiment: EGFR kinase inhibition assay (ELISA kit)
# Sequence of EGFR (P00533 25-1210): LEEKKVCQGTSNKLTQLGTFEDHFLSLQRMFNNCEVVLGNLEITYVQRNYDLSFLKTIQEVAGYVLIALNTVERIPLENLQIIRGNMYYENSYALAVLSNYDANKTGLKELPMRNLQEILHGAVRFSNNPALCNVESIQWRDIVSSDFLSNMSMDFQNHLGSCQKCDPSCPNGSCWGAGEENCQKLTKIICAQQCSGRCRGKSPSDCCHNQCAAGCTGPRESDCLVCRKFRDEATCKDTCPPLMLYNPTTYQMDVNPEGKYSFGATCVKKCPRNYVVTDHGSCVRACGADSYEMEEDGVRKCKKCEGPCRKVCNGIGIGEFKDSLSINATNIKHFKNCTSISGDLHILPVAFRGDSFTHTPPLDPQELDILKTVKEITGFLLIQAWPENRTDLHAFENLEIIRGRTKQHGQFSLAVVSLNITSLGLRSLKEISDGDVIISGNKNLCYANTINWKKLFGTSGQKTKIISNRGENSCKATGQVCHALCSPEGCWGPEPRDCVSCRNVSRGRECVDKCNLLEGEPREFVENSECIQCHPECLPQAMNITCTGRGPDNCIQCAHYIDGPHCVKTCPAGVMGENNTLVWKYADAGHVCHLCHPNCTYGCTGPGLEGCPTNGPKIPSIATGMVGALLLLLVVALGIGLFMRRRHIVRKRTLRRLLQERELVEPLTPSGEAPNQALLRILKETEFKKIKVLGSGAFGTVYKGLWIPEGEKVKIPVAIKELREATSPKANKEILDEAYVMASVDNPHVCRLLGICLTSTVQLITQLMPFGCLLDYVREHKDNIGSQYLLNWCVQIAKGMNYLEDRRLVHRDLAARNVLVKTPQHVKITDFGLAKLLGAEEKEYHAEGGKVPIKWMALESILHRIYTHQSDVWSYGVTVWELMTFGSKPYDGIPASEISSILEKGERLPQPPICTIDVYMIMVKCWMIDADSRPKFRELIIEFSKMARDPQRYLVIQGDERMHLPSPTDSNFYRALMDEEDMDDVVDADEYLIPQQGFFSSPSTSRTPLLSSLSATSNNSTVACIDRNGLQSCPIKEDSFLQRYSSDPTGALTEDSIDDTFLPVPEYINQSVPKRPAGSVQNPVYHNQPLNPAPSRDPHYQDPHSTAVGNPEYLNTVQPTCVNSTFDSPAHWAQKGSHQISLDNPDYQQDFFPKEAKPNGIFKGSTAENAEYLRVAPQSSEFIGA
# TNF-alpha = TNF-alpha level in HepG-2 cells; type: cell-based, human; conditions: control 43.48
# Description: as §1, §2, §3, §4, §5, §6
# MCF-7 = experiment: MTT anti-proliferative assay, MCF-7; type: cell-based, human; conditions: Homo sapiens, MCF7
# IL-6R = IL-6R level in HepG-2 cells; type: cell-based, human
# Description: as §1, §2, §3, §4, §5, §6
# HepG-2 = experiment: MTT anti-proliferative assay, HepG-2; type: cell-based, human; conditions: Homo sapiens, HepG2
# K-562 = experiment: MTT anti-proliferative assay, K-562; type: cell-based, human; conditions: Homo sapiens, K562
# VEGFR-2 = VEGFR-2 (Homo sapiens, UniProt P35968); experiment: In vitro VEGFR-2 inhibitory assay (ELISA kit); conditions: VEGFR-2 kinase
# Sequence of VEGFR-2 (P35968 20-1356): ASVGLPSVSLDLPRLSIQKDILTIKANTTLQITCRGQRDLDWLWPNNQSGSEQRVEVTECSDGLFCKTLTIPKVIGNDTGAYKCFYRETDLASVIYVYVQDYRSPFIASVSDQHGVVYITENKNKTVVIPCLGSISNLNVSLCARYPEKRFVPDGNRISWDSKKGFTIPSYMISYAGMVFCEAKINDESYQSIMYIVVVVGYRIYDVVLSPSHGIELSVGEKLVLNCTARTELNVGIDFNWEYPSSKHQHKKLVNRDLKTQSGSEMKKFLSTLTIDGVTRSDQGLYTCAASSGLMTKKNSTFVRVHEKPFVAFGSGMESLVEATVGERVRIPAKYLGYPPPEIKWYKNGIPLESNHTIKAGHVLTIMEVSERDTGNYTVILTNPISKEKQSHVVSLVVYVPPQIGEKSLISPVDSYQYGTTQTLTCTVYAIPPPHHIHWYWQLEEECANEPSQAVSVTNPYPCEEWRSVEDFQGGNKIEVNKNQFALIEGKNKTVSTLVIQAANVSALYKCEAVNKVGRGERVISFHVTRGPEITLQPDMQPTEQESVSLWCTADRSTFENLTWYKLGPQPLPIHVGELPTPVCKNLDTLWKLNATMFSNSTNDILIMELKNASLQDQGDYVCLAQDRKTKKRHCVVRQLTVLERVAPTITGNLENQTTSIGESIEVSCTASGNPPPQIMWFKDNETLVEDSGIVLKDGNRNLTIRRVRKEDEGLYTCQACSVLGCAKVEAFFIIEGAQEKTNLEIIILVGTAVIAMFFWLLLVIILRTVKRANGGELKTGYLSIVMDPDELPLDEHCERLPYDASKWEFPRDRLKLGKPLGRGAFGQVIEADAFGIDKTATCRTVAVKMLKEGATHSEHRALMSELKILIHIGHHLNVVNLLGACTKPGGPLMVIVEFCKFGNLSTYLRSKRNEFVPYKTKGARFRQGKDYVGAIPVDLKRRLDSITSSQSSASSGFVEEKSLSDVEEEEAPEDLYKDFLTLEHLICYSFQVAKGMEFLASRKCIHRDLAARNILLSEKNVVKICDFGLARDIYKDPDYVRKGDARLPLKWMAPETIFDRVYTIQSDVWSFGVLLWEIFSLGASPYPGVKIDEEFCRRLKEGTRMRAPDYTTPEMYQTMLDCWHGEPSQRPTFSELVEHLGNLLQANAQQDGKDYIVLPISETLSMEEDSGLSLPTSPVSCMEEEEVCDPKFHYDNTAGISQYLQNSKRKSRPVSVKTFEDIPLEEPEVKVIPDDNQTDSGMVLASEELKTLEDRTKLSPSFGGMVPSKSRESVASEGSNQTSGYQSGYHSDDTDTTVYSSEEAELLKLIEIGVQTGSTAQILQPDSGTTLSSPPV
smiles,measurement,setting,value
"O=C(Cn1cnc2cc(Cl)ccc2c1=O)Nc1ccccc1Cl [8b, 2-(7-Chloro-4-oxoquinazolin-3(4H)-yl)-N-(2-chlorophenyl)acetamide]",Caspase-3 ± SE,caspase-3,1.10 ± 0.046 ng/mL
same,Caspase-3 ± SE,caspase-3; listed as R3,1.10 ng/mL
same,"caspase-3 expression level, fold increase","caspase-3; HepG-2, vs control cells",2.40 fold
same,Caspase-9 ± SE,caspase-9,83.31 ± 1.28 ng/L
same,Caspase-9 ± SE,caspase-9; listed as R3,83.31 ng/L
same,"caspase-9 expression level, fold increase","caspase-9; HepG-2, vs control cells",7.5 fold
same,Activity %,EGFR; HepG2,16.278%
same,Inhibition %,EGFR; HepG2,83.722%
same,Activity %,EGFR; K-562,17.305%
same,Inhibition %,EGFR; K-562,82.695%
same,Activity %,EGFR; MCF7,18.736%
same,Inhibition %,EGFR; MCF7,81.264%
same,TNF-alpha ±SE,"TNF-alpha; HepG-2, at IC50 concentrations",23.47 ± 0.56 ng/L
same,TNF-alpha ±SE,"TNF-alpha; raw data, HepG2",16.86 ng/L
same,viability at 0.195 µmol,"MCF-7; MCF-7, 0.195 umol",47.8%
same,cytotoxicity at 0.195 µmol,"MCF-7; MCF-7, 0.195 umol, read-out: Toxicity %",52.2%
same,viability at 0.391 µmol,"MCF-7; MCF-7, 0.391 umol",28.6%
same,cytotoxicity at 0.391 µmol,"MCF-7; MCF-7, 0.391 umol, read-out: Toxicity %",71.4%
same,viability at 0.781 µmol,"MCF-7; MCF-7, 0.781 umol",14.1%
same,cytotoxicity at 0.781 µmol,"MCF-7; MCF-7, 0.781 umol, read-out: Toxicity %",85.9%
same,viability at 1.563 µmol,"MCF-7; MCF-7, 1.563 umol",12%
same,cytotoxicity at 1.563 µmol,"MCF-7; MCF-7, 1.563 umol, read-out: Toxicity %",88%
same,viability at 3.125 µmol,"MCF-7; MCF-7, 3.125 umol",9.81%
same,cytotoxicity at 3.125 µmol,"MCF-7; MCF-7, 3.125 umol, read-out: Toxicity %",90.2%
same,viability at 6.25 µmol,"MCF-7; MCF-7, 6.25 umol",8.27%
same,cytotoxicity at 6.25 µmol,"MCF-7; MCF-7, 6.25 umol, read-out: Toxicity %",91.7%
same,viability at 12.5 µmol,"MCF-7; MCF-7, 12.5 umol",6.86%
same,cytotoxicity at 12.5 µmol,"MCF-7; MCF-7, 12.5 umol, read-out: Toxicity %",93.1%
same,viability at 25 µmol,"MCF-7; MCF-7, 25 umol",6.68%
same,cytotoxicity at 25 µmol,"MCF-7; MCF-7, 25 umol, read-out: Toxicity %",93.3%
same,IC50,"MCF-7; MTT, MCF-7, read-out: Cytotoxicity against cancer cells IC50 MCF-7",191 ± 4 nM
same,IL-6R ± SE,"IL-6R; HepG-2, at IC50 concentrations, control 44.10",24.59 ± 0.95 ng/L
same,IL-6R protein level,"IL-6R; HepG-2, control 44.10%",24.59 ng/L
same,IL-6 ±SE,"IL-6R; raw data, HepG2, control 44.10",11.87 ng/L
same,viability at 0.195 µg/mL,"HepG-2; HepG-2, 0.195 ug/ml",52.9%
same,cytotoxicity at 0.195 µg/mL,"HepG-2; HepG-2, 0.195 ug/ml, read-out: Toxicity %",47.1%
same,viability at 0.391 µg/mL,"HepG-2; HepG-2, 0.391 ug/ml",33.3%
same,cytotoxicity at 0.391 µg/mL,"HepG-2; HepG-2, 0.391 ug/ml, read-out: Toxicity %",66.7%
same,viability at 0.781 µg/mL,"HepG-2; HepG-2, 0.781 ug/ml",27.5%
same,cytotoxicity at 0.781 µg/mL,"HepG-2; HepG-2, 0.781 ug/ml, read-out: Toxicity %",72.5%
same,viability at 1.563 µg/mL,"HepG-2; HepG-2, 1.563 ug/ml",13.7%
same,cytotoxicity at 1.563 µg/mL,"HepG-2; HepG-2, 1.563 ug/ml, read-out: Toxicity %",86.3%
same,viability at 3.125 µg/mL,"HepG-2; HepG-2, 3.125 ug/ml",9.67%
same,cytotoxicity at 3.125 µg/mL,"HepG-2; HepG-2, 3.125 ug/ml, read-out: Toxicity %",90.3%
same,viability at 6.25 µg/mL,"HepG-2; HepG-2, 6.25 ug/ml",8.39%
same,cytotoxicity at 6.25 µg/mL,"HepG-2; HepG-2, 6.25 ug/ml, read-out: Toxicity %",91.6%
same,viability at 12.5 µg/mL,"HepG-2; HepG-2, 12.5 ug/ml",7.03%
same,cytotoxicity at 12.5 µg/mL,"HepG-2; HepG-2, 12.5 ug/ml, read-out: Toxicity %",93%
same,viability at 25 µg/mL,"HepG-2; HepG-2, 25 ug/ml",5.68%
same,cytotoxicity at 25 µg/mL,"HepG-2; HepG-2, 25 ug/ml, read-out: Toxicity %",94.3%
same,IC50,"HepG-2; MTT, HepG-2, read-out: Cytotoxicity against cancer cells IC50 HepG-2",224.2 ± 1.7 nM
same,viability at 0.195 µmol,"K-562; K-562, 0.195 umol",82.7%
same,cytotoxicity at 0.195 µmol,"K-562; K-562, 0.195 umol, read-out: Toxicity %",17.3%
same,viability at 0.391 µmol,"K-562; K-562, 0.391 umol",55.2%
same,cytotoxicity at 0.391 µmol,"K-562; K-562, 0.391 umol, read-out: Toxicity %",44.8%
same,viability at 0.781 µmol,"K-562; K-562, 0.781 umol",27.4%
same,cytotoxicity at 0.781 µmol,"K-562; K-562, 0.781 umol, read-out: Toxicity %",72.6%
same,viability at 1.563 µmol,"K-562; K-562, 1.563 umol",16.4%
same,cytotoxicity at 1.563 µmol,"K-562; K-562, 1.563 umol, read-out: Toxicity %",83.6%
same,viability at 3.125 µmol,"K-562; K-562, 3.125 umol",11.1%
same,cytotoxicity at 3.125 µmol,"K-562; K-562, 3.125 umol, read-out: Toxicity %",88.9%
same,viability at 6.25 µmol,"K-562; K-562, 6.25 umol",8.54%
same,cytotoxicity at 6.25 µmol,"K-562; K-562, 6.25 umol, read-out: Toxicity %",91.5%
same,viability at 12.5 µmol,"K-562; K-562, 12.5 umol",7.8%
same,cytotoxicity at 12.5 µmol,"K-562; K-562, 12.5 umol, read-out: Toxicity %",92.2%
same,viability at 25 µmol,"K-562; K-562, 25 umol",6.69%
same,cytotoxicity at 25 µmol,"K-562; K-562, 25 umol, read-out: Toxicity %",93.3%
same,IC50,"K-562; MTT, K-562, read-out: Cytotoxicity against cancer cells IC50 K-562",464.2 ± 3 nM
same,Activity %,VEGFR-2; HepG2,11.673%
same,Inhibition %,VEGFR-2; HepG2,88.327%
same,Activity %,VEGFR-2; K-562,21.332%
same,Inhibition %,VEGFR-2; K-562,78.668%
same,Activity %,VEGFR-2; MCF7,19.260%
same,Inhibition %,VEGFR-2; MCF7,80.740%
